Reference: ChEMBL document CHEMBL3885861, “Open TG-GATES”

Species on record: Rattus norvegicus
Assay: Open TG-GATES - Regimen: Daily Repeat
Type: toxicity, organism-based, Sprague-Dawley
Set-up: regimen Daily Repeat, gender Male, age 6 weeks
Conditions: in vivo, po, 0 mg/kg, route gavage, dose level Control; for APTT / Bas / Eos / Fbg / Hb / Ht / Lym / MCH / MCHC / MCV / Mono / Neu / PT / Plat / RBC / Ret / WBC: tissue Blood; for KIDNEY_L / KIDNEY_R / KIDNEY_TOTAL: tissue Kidney; for LIVER: tissue Liver; for A/G / ALP / ALT / AST / BUN / CRE / Ca / Cl / DBIL / GLC / IP / K / LDH / Na / PL / RALB / TBIL / TC / TG / TP / gamma-GTP: tissue Plasma

What does the source list for `CC(CN1c2ccccc2Sc2ccccc21)N(C)C` (configuration not stated) [PROMETHAZINE]?
TERMINAL_BW (72 h, time 3 day): 230.6 g; APTT (72 h, time 3 day): 22.8 s; Bas (72 h, time 3 day): 0%; Eos (72 h, time 3 day): 1%; Fbg (72 h, time 3 day): 309 mg/dL; Hb (72 h, time 3 day): 13.2 g/dL; Ht (72 h, time 3 day): 40.1%; Lym (72 h, time 3 day): 81.2%; MCH (72 h, time 3 day): 20.4 pg; MCHC (72 h, time 3 day): 33%; MCV (72 h, time 3 day): 61.9 fL; Mono (72 h, time 3 day): 2.8%; Neu (72 h, time 3 day): 14.5%; PT (72 h, time 3 day): 16.1 s; Plat (72 h, time 3 day): 117 x10_4/uL; RBC (72 h, time 3 day): 647.8 x10_4/ul; Ret (72 h, time 3 day): 6%; WBC (72 h, time 3 day): 94 x10_2/uL; KIDNEY_L (72 h, time 3 day): 1 g; KIDNEY_R (72 h, time 3 day): 1.1 g; KIDNEY_TOTAL (72 h, time 3 day): 2.1 g; LIVER (72 h, time 3 day): 11.1 g; A/G (72 h, time 3 day): 1.3; ALP (72 h, time 3 day): 1577 IU/L; ALT (72 h, time 3 day): 40 IU/L; AST (72 h, time 3 day): 71.8 IU/L; BUN (72 h, time 3 day): 17 mg/dL; CRE (72 h, time 3 day): 0.2 mg/dL; Ca (72 h, time 3 day): 10.5 mg/dL; Cl (72 h, time 3 day): 105.2 meq/L; DBIL (72 h, time 3 day): 0 mg/dL; GLC (72 h, time 3 day): 195.2 mg/dL; IP (72 h, time 3 day): 6.8 mg/dL; K (72 h, time 3 day): 4.6 meq/L; LDH (72 h, time 3 day): 177 IU/L; Na (72 h, time 3 day): 141.2 meq/L; PL (72 h, time 3 day): 161 mg/dL; RALB (72 h, time 3 day): 3.1 g/dL; TBIL (72 h, time 3 day): 0.005 mg/dL; TC (72 h, time 3 day): 86.8 mg/dL; TG (72 h, time 3 day): 109.8 mg/dL; TP (72 h, time 3 day): 5.5 g/dL; gamma-GTP (72 h, time 3 day): 1.8 IU/L; TERMINAL_BW ([…], time 7 day): 267.8 g; TERMINAL_BW ([…], time 14 day): 326 g; TERMINAL_BW ([…], time 28 day): 402.8 g; APTT ([…], time 7 day): 22.2 s; Bas ([…], time 7 day): 0%; Eos ([…], time 7 day): 0.8%; Fbg ([…], time 7 day): 293.8 mg/dL; Hb ([…], time 7 day): 12.9 g/dL; Ht ([…], time 7 day): 39.1%; Lym ([…], time 7 day): 84.2%; MCH ([…], time 7 day): 20.4 pg; MCHC ([…], time 7 day): 33%; MCV ([…], time 7 day): 61.7 fL; Mono ([…], time 7 day): 2.2%; Neu ([…], time 7 day): 12.2%; PT ([…], time 7 day): 16.3 s; Plat ([…], time 7 day): 105 x10_4/uL; RBC ([…], time 7 day): 633.4 x10_4/ul; Ret ([…], time 7 day): 6.3%; WBC ([…], time 7 day): 131.7 x10_2/uL; APTT ([…], time 14 day): 23.3 s; Bas ([…], time 14 day): 0%; Eos ([…], time 14 day): 1%; Fbg ([…], time 14 day): 317.8 mg/dL; Hb ([…], time 14 day): 14.1 g/dL; Ht ([…], time 14 day): 41.4%; Lym ([…], time 14 day): 80.2%; MCH ([…], time 14 day): 20.7 pg; MCHC ([…], time 14 day): 34%; MCV ([…], time 14 day): 60.8 fL; Mono ([…], time 14 day): 2%; Neu ([…], time 14 day): 15.8%; PT ([…], time 14 day): 16 s; Plat ([…], time 14 day): 114.3 x10_4/uL; RBC ([…], time 14 day): 681 x10_4/ul; Ret ([…], time 14 day): 5.1%; WBC ([…], time 14 day): 127.7 x10_2/uL; APTT ([…], time 28 day): 22.7 s; Bas ([…], time 28 day): 0%; Eos ([…], time 28 day): 0.8%; Fbg ([…], time 28 day): 341.8 mg/dL; Hb ([…], time 28 day): 15.1 g/dL; Ht ([…], time 28 day): 43.8%; Lym ([…], time 28 day): 80.2%; MCH ([…], time 28 day): 19.9 pg; MCHC ([…], time 28 day): 34.6%; MCV ([…], time 28 day): 57.7 fL; Mono ([…], time 28 day): 1.8%; Neu ([…], time 28 day): 16.4%; PT ([…], time 28 day): 16.4 s; Plat ([…], time 28 day): 101.8 x10_4/uL; RBC ([…], time 28 day): 760.2 x10_4/ul; Ret ([…], time 28 day): 2.9%; WBC ([…], time 28 day): 124 x10_2/uL; KIDNEY_L ([…], time 7 day): 1.2 g; KIDNEY_R ([…], time 7 day): 1.2 g; KIDNEY_TOTAL ([…], time 7 day): 2.3 g; KIDNEY_L ([…], time 14 day): 1.2 g; KIDNEY_R ([…], time 14 day): 1.2 g; KIDNEY_TOTAL ([…], time 14 day): 2.5 g; KIDNEY_L ([…], time 28 day): 1.4 g; KIDNEY_R ([…], time 28 day): 1.4 g; KIDNEY_TOTAL ([…], time 28 day): 2.8 g; LIVER ([…], time 7 day): 12.3 g; LIVER ([…], time 14 day): 15.1 g; LIVER ([…], time 28 day): 16.9 g; A/G ([…], time 7 day): 1.3; ALP ([…], time 7 day): 1379.8 IU/L; ALT ([…], time 7 day): 42.2 IU/L; AST ([…], time 7 day): 73.2 IU/L; BUN ([…], time 7 day): 17.6 mg/dL; CRE ([…], time 7 day): 0.2 mg/dL; Ca ([…], time 7 day): 10.7 mg/dL; Cl ([…], time 7 day): 104.6 meq/L; DBIL ([…], time 7 day): 0 mg/dL; GLC ([…], time 7 day): 205.2 mg/dL; IP ([…], time 7 day): 7.7 mg/dL; K ([…], time 7 day): 4.6 meq/L; LDH ([…], time 7 day): 212.4 IU/L; Na ([…], time 7 day): 141.2 meq/L; PL ([…], time 7 day): 133.6 mg/dL; RALB ([…], time 7 day): 3.1 g/dL; TBIL ([…], time 7 day): 0.012 mg/dL; TC ([…], time 7 day): 64.4 mg/dL; TG ([…], time 7 day): 89.4 mg/dL; TP ([…], time 7 day): 5.4 g/dL; gamma-GTP ([…], time 7 day): 2 IU/L; A/G ([…], time 14 day): 1.2; ALP ([…], time 14 day): 1370.6 IU/L; ALT ([…], time 14 day): 40 IU/L; AST ([…], time 14 day): 70.4 IU/L; BUN ([…], time 14 day): 18.8 mg/dL; CRE ([…], time 14 day): 0.2 mg/dL; Ca ([…], time 14 day): 10.8 mg/dL; Cl ([…], time 14 day): 105.4 meq/L; DBIL ([…], time 14 day): 0 mg/dL; GLC ([…], time 14 day): 201 mg/dL; IP ([…], time 14 day): 7 mg/dL; K ([…], time 14 day): 4.3 meq/L; LDH ([…], time 14 day): 162.6 IU/L; Na ([…], time 14 day): 142.2 meq/L; PL ([…], time 14 day): 136.8 mg/dL; RALB ([…], time 14 day): 3.2 g/dL; TBIL ([…], time 14 day): 0.002 mg/dL; TC ([…], time 14 day): 66 mg/dL; TG ([…], time 14 day): 133 mg/dL; TP ([…], time 14 day): 5.9 g/dL; gamma-GTP ([…], time 14 day): 3 IU/L; A/G ([…], time 28 day): 1; ALP ([…], time 28 day): 1347.2 IU/L; ALT ([…], time 28 day): 42.4 IU/L; AST ([…], time 28 day): 66.8 IU/L; BUN ([…], time 28 day): 19.4 mg/dL; CRE ([…], time 28 day): 0.2 mg/dL; Ca ([…], time 28 day): 10.4 mg/dL; Cl ([…], time 28 day): 104.8 meq/L; DBIL ([…], time 28 day): 0 mg/dL; GLC ([…], time 28 day): 195.8 mg/dL; IP ([…], time 28 day): 6.3 mg/dL; K ([…], time 28 day): 4 meq/L; LDH ([…], time 28 day): 160.6 IU/L; Na ([…], time 28 day): 143.2 meq/L; PL ([…], time 28 day): 149 mg/dL; RALB ([…], time 28 day): 3 g/dL; TBIL ([…], time 28 day): 0.006 mg/dL; TC ([…], time 28 day): 65.8 mg/dL; TG ([…], time 28 day): 192.8 mg/dL; TP ([…], time 28 day): 6.2 g/dL; gamma-GTP ([…], time 28 day): 2.6 IU/L
